{
  "source": "patent US20260224588A1",
  "about": "“BENZODIAZEPINONE-DERIVED INHIBITORS OF EGFR AND HER2” (The Research Foundation for the State University of New York, priority 2023, published 2026)",
  "assay_in_all_cases": "KINOMEscan",
  "format_in_all_cases": "binding",
  "conditions_in_all_cases": "1 μM of compound 4; read-out: POC",
  "key": {"ALK": {"target": "ALK (Homo sapiens, UniProt Q9UM73)"}, "ARK5": {"target": "ARK5 (Homo sapiens, UniProt O60285)"}, "AURKA": {"target": "AURKA (Homo sapiens, UniProt O14965)"}, "CAMK2G": {"target": "CAMK2G (Homo sapiens, UniProt Q13555)"}, "CSNK2A2": {"target": "CSNK2A2 (Homo sapiens, UniProt P19784)", "sequence (P19784 whole entry)": "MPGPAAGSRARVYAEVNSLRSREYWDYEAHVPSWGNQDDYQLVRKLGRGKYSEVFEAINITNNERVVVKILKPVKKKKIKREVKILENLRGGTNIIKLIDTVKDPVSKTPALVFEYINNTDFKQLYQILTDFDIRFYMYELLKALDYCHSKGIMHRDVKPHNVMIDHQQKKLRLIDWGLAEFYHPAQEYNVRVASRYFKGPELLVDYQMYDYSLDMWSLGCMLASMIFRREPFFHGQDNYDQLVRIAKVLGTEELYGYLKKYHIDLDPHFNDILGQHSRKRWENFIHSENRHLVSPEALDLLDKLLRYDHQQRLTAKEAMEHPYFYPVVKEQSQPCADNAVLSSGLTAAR"}, "[1]": {"target": "T1, EGFR(L747-E749del + A750P) (Homo sapiens, UniProt P00533, A750P/DEL747-749)", "T1 construct": "purchased Eurofins DiscoverX (KINOMEscan service)", "T1 sequence (P00533 with tags, fused parts or gaps DEL747-749/A750P)": "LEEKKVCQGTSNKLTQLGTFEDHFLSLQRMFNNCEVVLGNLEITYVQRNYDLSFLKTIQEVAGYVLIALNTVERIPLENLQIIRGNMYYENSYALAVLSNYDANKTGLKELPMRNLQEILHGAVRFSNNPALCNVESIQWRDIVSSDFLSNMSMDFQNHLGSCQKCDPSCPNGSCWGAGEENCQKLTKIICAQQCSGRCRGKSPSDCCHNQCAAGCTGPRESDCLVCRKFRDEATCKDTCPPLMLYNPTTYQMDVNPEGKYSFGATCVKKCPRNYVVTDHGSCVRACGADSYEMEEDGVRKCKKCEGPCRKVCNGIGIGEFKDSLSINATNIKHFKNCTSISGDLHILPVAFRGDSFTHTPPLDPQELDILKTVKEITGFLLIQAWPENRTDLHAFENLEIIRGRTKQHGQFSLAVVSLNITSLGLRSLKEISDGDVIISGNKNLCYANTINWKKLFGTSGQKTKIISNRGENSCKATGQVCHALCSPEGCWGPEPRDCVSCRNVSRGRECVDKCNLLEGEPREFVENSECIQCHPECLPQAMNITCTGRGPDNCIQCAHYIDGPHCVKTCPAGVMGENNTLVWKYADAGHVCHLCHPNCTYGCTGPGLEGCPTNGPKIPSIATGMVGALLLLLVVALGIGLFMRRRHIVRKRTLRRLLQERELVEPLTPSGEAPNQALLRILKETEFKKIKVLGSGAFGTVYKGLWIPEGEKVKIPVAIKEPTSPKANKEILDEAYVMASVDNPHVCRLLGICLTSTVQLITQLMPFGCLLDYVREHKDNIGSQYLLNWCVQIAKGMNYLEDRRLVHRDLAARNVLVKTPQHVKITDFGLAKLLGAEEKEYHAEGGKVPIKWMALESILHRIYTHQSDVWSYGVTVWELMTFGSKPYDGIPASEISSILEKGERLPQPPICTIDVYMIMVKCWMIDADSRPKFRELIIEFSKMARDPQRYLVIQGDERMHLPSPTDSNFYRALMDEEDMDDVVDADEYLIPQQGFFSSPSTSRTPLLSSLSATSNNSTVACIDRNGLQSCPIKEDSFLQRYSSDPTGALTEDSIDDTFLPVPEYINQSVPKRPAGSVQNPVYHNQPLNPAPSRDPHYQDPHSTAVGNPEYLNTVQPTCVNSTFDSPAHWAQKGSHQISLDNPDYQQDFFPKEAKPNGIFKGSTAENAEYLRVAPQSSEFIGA"}, "[2]": {"target": "T2, EGFR(L747-T751del + Sins) (Homo sapiens, UniProt P00533, DEL747-750/T751S)", "T2 construct": "purchased Eurofins DiscoverX (KINOMEscan service)", "T2 sequence (P00533 with tags, fused parts or gaps DEL747-750/T751S limits assumed)": "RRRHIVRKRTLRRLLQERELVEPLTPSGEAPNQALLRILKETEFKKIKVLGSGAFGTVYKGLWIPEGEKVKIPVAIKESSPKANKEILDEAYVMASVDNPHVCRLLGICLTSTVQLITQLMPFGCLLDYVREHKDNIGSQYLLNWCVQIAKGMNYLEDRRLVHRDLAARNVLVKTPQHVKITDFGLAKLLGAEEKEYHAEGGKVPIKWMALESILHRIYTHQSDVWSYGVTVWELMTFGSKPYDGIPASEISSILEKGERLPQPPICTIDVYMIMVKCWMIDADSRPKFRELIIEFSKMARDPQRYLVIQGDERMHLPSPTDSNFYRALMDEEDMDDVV"}, "EGFR(L858R + T790M)": {"target": "T3, EGFR(L858R + T790M) (Homo sapiens, UniProt P00533, L858R/T790M)", "T3 construct": "purchased Eurofins DiscoverX (KINOMEscan service)"}, "EGFR(T790M)": {"target": "T4, EGFR(T790M) (Homo sapiens, UniProt P00533, T790M)", "T4 construct": "purchased Eurofins DiscoverX (KINOMEscan service)"}, "EPHB3": {"target": "T5, EPHB3 (Homo sapiens, UniProt P54753)", "T5 construct": "purchased Eurofins DiscoverX (KINOMEscan service)"}, "FGFR3": {"target": "T6, FGFR3 (Homo sapiens, UniProt P22607)", "T6 construct": "purchased Eurofins DiscoverX Corporation"}, "FLT3(D835H)": {"target": "T7, FLT3(D835H) (Homo sapiens, UniProt P36888, D835H)", "T7 construct": "purchased Eurofins DiscoverX Corporation"}, "GCN2(Kin.Dom.2 + S808G)": {"target": "T8, GCN2(Kin.Dom.2 + S808G) (Homo sapiens, UniProt Q9P2K8, S808G)", "T8 construct": "GCN2(Kin.Dom.2 + S808G); purchased Eurofins DiscoverX Corporation"}, "HUNK": {"target": "HUNK (Homo sapiens, UniProt P57058)"}, "[3]": {"target": "JAK1(JH1domain-catalytic) (Homo sapiens, UniProt P23458)", "sequence (P23458 875-1153 limits assumed)": "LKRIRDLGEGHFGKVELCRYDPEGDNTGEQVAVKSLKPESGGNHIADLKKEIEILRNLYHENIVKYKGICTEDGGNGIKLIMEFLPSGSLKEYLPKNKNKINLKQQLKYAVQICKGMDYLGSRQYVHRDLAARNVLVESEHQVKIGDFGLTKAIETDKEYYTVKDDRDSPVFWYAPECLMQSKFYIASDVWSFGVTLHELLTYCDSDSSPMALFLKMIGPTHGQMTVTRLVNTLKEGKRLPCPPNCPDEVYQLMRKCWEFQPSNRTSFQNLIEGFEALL"}, "JNK2": {"target": "JNK2 (Homo sapiens, UniProt P45984)"}, "JNK3": {"target": "JNK3 (Homo sapiens, UniProt P53779)", "sequence (P53779 whole entry)": "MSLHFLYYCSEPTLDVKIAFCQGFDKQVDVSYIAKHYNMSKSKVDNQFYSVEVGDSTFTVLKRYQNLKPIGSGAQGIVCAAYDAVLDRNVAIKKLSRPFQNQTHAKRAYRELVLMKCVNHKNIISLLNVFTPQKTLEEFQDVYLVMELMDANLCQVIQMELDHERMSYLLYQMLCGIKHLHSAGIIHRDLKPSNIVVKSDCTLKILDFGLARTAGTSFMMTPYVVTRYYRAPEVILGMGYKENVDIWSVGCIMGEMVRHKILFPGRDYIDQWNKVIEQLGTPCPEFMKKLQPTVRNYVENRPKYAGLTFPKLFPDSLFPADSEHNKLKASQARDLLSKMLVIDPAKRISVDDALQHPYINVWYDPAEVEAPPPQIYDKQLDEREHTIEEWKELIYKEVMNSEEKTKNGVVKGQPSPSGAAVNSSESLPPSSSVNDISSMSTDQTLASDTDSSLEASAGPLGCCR"}, "KIT(D816V)": {"target": "KIT(D816V) (Homo sapiens, UniProt P10721, D816V)"}, "KIT(V559D + T670I)": {"target": "KIT(V559D + T670I) (Homo sapiens, UniProt P10721, T670I/V559D)"}, "LATS1": {"target": "LATS1 (Homo sapiens, UniProt O95835)"}, "MARK3": {"target": "MARK3 (Homo sapiens, UniProt P27448)"}, "MET(Y1235D)": {"target": "MET(Y1235D) (Homo sapiens, UniProt P08581, Y1235D)"}, "MKK7": {"target": "MKK7 (Homo sapiens, UniProt O14733)"}, "MLK3": {"target": "MLK3 (Homo sapiens, UniProt Q16584)", "sequence (Q16584 whole entry)": "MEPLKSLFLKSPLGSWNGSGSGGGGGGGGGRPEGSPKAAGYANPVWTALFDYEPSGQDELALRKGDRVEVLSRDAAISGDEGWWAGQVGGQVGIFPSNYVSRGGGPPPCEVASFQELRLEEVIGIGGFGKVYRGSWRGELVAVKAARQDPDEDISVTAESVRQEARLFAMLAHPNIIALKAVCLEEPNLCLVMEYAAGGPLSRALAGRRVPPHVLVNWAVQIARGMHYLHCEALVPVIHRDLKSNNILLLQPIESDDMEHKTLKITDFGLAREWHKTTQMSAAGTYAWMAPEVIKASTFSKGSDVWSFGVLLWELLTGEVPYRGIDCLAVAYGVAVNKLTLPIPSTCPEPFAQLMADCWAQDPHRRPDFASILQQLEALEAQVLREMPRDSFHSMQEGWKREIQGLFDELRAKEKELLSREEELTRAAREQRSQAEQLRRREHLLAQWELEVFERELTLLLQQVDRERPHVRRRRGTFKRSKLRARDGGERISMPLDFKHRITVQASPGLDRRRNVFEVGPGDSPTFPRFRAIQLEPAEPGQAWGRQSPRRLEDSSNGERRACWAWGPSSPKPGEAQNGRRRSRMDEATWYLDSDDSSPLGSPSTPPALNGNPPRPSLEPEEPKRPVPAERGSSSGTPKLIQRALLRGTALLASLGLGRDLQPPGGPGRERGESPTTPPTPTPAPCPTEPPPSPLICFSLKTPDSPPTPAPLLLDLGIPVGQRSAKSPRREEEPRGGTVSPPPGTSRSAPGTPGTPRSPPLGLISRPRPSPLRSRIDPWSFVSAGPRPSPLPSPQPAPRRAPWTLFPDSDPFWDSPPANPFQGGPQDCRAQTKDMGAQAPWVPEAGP"}, "MST1": {"target": "MST1 (Homo sapiens, UniProt Q13043)", "sequence (Q13043 whole entry)": "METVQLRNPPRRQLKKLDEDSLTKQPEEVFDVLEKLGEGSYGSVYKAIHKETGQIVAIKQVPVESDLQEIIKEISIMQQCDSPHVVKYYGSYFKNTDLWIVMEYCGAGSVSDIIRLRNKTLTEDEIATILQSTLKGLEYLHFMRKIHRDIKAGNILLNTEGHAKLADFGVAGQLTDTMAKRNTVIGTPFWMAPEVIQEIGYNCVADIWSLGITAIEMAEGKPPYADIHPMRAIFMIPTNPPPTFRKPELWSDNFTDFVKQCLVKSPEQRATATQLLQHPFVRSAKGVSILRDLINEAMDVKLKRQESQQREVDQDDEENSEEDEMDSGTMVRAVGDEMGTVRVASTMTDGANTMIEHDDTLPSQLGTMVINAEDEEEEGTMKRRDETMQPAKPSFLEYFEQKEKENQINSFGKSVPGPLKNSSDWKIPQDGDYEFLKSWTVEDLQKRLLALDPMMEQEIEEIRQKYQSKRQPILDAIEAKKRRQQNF"}, "MYLK2": {"target": "MYLK2 (Homo sapiens, UniProt Q9H1R3)"}, "NEK11": {"target": "NEK11 (Homo sapiens, UniProt Q8NG66)"}, "PDGFRB": {"target": "T9, PDGFRB (Homo sapiens, UniProt P09619)", "T9 construct": "purchased Eurofins DiscoverX Corporation (KINOMEscan)", "T9 sequence (P09619 33-1106)": "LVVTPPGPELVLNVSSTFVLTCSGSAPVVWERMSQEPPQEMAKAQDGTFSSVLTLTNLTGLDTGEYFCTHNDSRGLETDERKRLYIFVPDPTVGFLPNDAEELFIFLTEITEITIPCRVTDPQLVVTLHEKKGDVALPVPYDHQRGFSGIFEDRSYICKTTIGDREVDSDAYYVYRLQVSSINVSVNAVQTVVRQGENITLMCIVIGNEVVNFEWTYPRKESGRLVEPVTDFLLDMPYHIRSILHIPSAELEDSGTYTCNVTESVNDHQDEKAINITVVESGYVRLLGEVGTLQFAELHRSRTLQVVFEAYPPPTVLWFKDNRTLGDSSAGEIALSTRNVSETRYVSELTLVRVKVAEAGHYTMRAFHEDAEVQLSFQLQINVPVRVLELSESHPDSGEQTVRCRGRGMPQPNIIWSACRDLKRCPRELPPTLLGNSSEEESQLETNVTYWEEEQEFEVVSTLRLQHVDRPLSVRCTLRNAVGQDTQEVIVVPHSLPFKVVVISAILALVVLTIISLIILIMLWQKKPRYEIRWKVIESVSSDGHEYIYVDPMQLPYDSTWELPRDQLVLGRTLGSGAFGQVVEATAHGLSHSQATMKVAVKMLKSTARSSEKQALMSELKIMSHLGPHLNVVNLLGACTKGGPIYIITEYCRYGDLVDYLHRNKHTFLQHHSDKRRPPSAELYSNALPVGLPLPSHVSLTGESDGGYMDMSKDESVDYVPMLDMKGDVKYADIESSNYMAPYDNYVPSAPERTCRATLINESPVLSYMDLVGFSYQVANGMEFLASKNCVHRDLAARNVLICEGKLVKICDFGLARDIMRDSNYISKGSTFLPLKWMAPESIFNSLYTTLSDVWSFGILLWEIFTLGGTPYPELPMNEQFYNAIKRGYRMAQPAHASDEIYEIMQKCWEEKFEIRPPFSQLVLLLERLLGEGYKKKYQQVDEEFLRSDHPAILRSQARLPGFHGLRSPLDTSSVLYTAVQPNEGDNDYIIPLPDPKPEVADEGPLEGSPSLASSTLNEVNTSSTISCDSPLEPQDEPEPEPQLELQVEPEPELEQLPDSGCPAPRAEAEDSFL"}, "PRKCE": {"target": "PRKCE (Homo sapiens, UniProt Q02156)"}, "SGK2": {"target": "T10, SGK2 (Homo sapiens, UniProt Q9HBY8)", "T10 construct": "purchased Eurofins DiscoverX (KINOMEscan service)"}, "TAOK1": {"target": "T11, TAOK1 (Homo sapiens, UniProt Q7L7X3)", "T11 construct": "purchased Eurofins DiscoverX Corporation"}, "TYRO3": {"target": "T12, TYRO3 (Homo sapiens, UniProt Q06418)", "T12 construct": "purchased Eurofins DiscoverX"}, "YANK2": {"target": "T13, YANK2 (Homo sapiens, UniProt Q9NY57)", "T13 construct": "purchased Eurofins DiscoverX"}},
  "data": [
    {"smiles": "C=CC(=O)Nc1ccc(OC)c(Nc2cc(-c3[nH]c(CC)nc3-c3cccc(NC(=O)c4cccc5c4NC(=O)c4ccccc4N5)c3)ccn2)c1", "note": "[Compound 4, N-(3-(5-(2-((5-Acrylamido-2-methoxyphenyl)amino)pyridin-4-yl)-2-ethyl-1H-imidazol-4-yl)phenyl)-11-oxo-10,11-dihydro-5H-dibenzo[b,e][1,4]diazepine-9-carboxamide]", "values": [
      {"measurement": "remaining binding at 1 µM", "setting": "ALK", "result": 100, "unit": "%"},
      {"measurement": "remaining binding at 1 µM", "setting": "ARK5", "result": 100, "unit": "%"},
      {"measurement": "remaining binding at 1 µM", "setting": "AURKA", "result": 90, "unit": "%"},
      {"measurement": "remaining binding at 1 µM", "setting": "CAMK2G", "result": 100, "unit": "%"},
      {"measurement": "remaining binding at 1 µM", "setting": "CSNK2A2", "result": 58, "unit": "%"},
      {"measurement": "remaining binding at 1 µM", "setting": "[1]", "result": 8, "unit": "%"},
      {"measurement": "remaining binding at 1 µM", "setting": "[2]", "result": 7.6, "unit": "%"},
      {"measurement": "remaining binding at 1 µM", "setting": "EGFR(L858R + T790M)", "result": 8.3, "unit": "%"},
      {"measurement": "remaining binding at 1 µM", "setting": "EGFR(T790M)", "result": 12, "unit": "%"},
      {"measurement": "remaining binding at 1 µM", "setting": "EPHB3", "result": 100, "unit": "%"},
      {"measurement": "remaining binding at 1 µM", "setting": "FGFR3", "result": 94, "unit": "%"},
      {"measurement": "remaining binding at 1 µM", "setting": "FLT3(D835H)", "result": 92, "unit": "%"},
      {"measurement": "remaining binding at 1 µM", "setting": "GCN2(Kin.Dom.2 + S808G)", "result": 100, "unit": "%"},
      {"measurement": "remaining binding at 1 µM", "setting": "HUNK", "result": 32, "unit": "%"},
      {"measurement": "remaining binding at 1 µM", "setting": "[3]", "result": 91, "unit": "%"},
      {"measurement": "remaining binding at 1 µM", "setting": "JNK2", "result": 78, "unit": "%"},
      {"measurement": "remaining binding at 1 µM", "setting": "JNK3", "result": 53, "unit": "%"},
      {"measurement": "remaining binding at 1 µM", "setting": "KIT(D816V)", "result": 94, "unit": "%"},
      {"measurement": "remaining binding at 1 µM", "setting": "KIT(V559D + T670I)", "result": 95, "unit": "%"},
      {"measurement": "remaining binding at 1 µM", "setting": "LATS1", "result": 100, "unit": "%"},
      {"measurement": "remaining binding at 1 µM", "setting": "MARK3", "result": 100, "unit": "%"},
      {"measurement": "remaining binding at 1 µM", "setting": "MET(Y1235D)", "result": 97, "unit": "%"},
      {"measurement": "remaining binding at 1 µM", "setting": "MKK7", "result": 31, "unit": "%"},
      {"measurement": "remaining binding at 1 µM", "setting": "MLK3", "result": 97, "unit": "%"},
      {"measurement": "remaining binding at 1 µM", "setting": "MST1", "result": 6, "unit": "%"},
      {"measurement": "remaining binding at 1 µM", "setting": "MYLK2", "result": 84, "unit": "%"},
      {"measurement": "remaining binding at 1 µM", "setting": "NEK11", "result": 100, "unit": "%"},
      {"measurement": "remaining binding at 1 µM", "setting": "PDGFRB", "result": 100, "unit": "%"},
      {"measurement": "remaining binding at 1 µM", "setting": "PRKCE", "result": 100, "unit": "%"},
      {"measurement": "remaining binding at 1 µM", "setting": "SGK2", "result": 83, "unit": "%"},
      {"measurement": "remaining binding at 1 µM", "setting": "TAOK1", "result": 100, "unit": "%"},
      {"measurement": "remaining binding at 1 µM", "setting": "TYRO3", "result": 32, "unit": "%"},
      {"measurement": "remaining binding at 1 µM", "setting": "YANK2", "result": 63, "unit": "%"}
    ]}
  ]
}
